# Laboratory results taken from patent publication US10781160B1, “Hexadecyl Treprostinil crystals and methods for preparation thereof” (CHIROGATE INTERNATIONAL INC., priority 2019, dated 2020).
# Assay type: physicochemical
# Experimental: Moreover, the assay of Hexadecyl Treprostinil crystal Form I can be kept between about 98.0% to about 102.0% even after thirty-six months of placement under normal storage temperature (about 5° C. to about −20° C.). […] Moreover, the assay of Hexadecyl Treprostinil crystal Form II can be kept between about 98.0 to about 102.0% even after thirty-six months of placement under normal storage temperature (about 5° C. to about […]).
substance,measurement,value
Hexadecyl Treprostinil [Hexadecyl Treprostinil crystal Form I],stability (other crystalline forms or degraded products of impurities),no other crystalline forms or degraded products of impurities
